Each structure is given as a SMILES string. Read-outs that look alike come from different tables or passages of the source.

One molecule from US20100069340A1, “PHARMACEUTICAL COMPOSITIONS OF AN SRC KINASE INHIBITOR AND AN AROMATASE INHIBITOR” (Wyeth, priority 2008, published 2010) can be followed below.

What all share (format): cell-based
For one assay, the system named is BT474. The experiment in a line: Cell proliferation assay (CellTiter Glo), BT474. Particulars: Homo sapiens, BT-474, 168 h, 7 Day assay, charcoal stripped serum, no phenol red. The protocol:
(§1) Cell lines were obtained from ATCC. Estrogen was obtained from SIGMA, 4-hydroxytamoxifen was obtained from SIGMA, Bosutinib was used for these studies. Charcoal-stripped serum and phenol red-free medium was obtained from Invitrogen. CellTiter Glo was obtained from Promega.
Cell cultures. Proliferation assays with cells in complete fetal calf serum were performed with medium containing phenol red. For all assays examining estrogen-dependence, cells were cultured in phenol red-free medium; DMEM/F12 (MCF7), RPMI1640 (MDA-MB-361, T47D) MEM (BT20, MDA-MB-231) McCoys5A modified (SKBR3), Leibowitz' L15 medium supplemented with 10 ng/mL insulin (MDA-MB-435 and MDA-MB-468) with 10% fetal bovine serum supplemented with glutamine and gentamicin. For proliferation assays, trypsinized cells were subjected to three cycles of centrifugation and resuspension in phenol red-free medium supplemented with charcoal stripped medium (5% final), glutamine and Pen/Strep. Cells were plated on day 0, with or without estrogen (10 nM final concentration). On day 1, 4-hydroxytamoxifen and SKI-606 or DMSO were added as a serial dilution. Cells were incubated for 7 days, after which CellTiter Glo (Promega) was added as recommended by the manufacturer. After mixing and two hours incubation on the bench, plates were read on an Envision reader. […]

In another assay the test system is MDA-MB-435 (ER neg). The assay is described as follows: Cell proliferation assay, MDA-MB-435. Particulars: Homo sapiens, MDA-MB-435, 72 h; 3 Day assay, complete medium (10% FCS). The procedure: as §1
(§2) Cell cultures. Proliferation assays with cells in complete fetal calf serum were performed with medium containing phenol red. For all assays examining estrogen-dependence, cells were cultured in phenol red-free medium; DMEM/F12 (MCF7), RPMI1640 (MDA-MB-361, T47D) MEM (BT20, MDA-MB-231) McCoys5A modified (SKBR3), Leibowitz' L15 medium supplemented with 10 ng/mL insulin (MDA-MB-435 and MDA-MB-468) with 10% fetal bovine serum supplemented with glutamine and gentamicin. For proliferation assays, trypsinized cells were subjected to three cycles of centrifugation and resuspension in phenol red-free medium supplemented with charcoal stripped medium (5% final), glutamine and Pen/Strep. Cells were plated on day 0, with or without estrogen (10 nM final concentration). On day 1, 4-hydroxytamoxifen and SKI-606 or DMSO were added as a serial dilution. […] After mixing and two hours incubation on the bench, plates were read on an Envision reader. […] The 10 uM data point was dropped for these two lines since there was a clear plateau prior to the sharp drop in luminescence observed at 10 uM compound. […]

The subject of the next assay is T47D. The assay is described as follows: Cell proliferation assay (CellTiter Glo), T47D. To be noted: Homo sapiens, 168 h, 7 Day assay, charcoal stripped serum, no phenol red. The procedure:
as §1, §2
(In general: In ATP-based viability assays light output follows the ATP content of the culture.)

The test system of a further assay is MDA-MB-361. The experiment in a line: Cell proliferation assay (CellTiter Glo), MDA-MB-361. Particulars: for IC50: Homo sapiens. The procedure:
as §1
Cell cultures. Proliferation assays with cells in complete fetal calf serum were performed with medium containing phenol red. For all assays examining estrogen-dependence, cells were cultured in phenol red-free medium; DMEM/F12 (MCF7), RPMI1640 (MDA-MB-361, T47D) MEM (BT20, MDA-MB-231) McCoys5A modified (SKBR3), Leibowitz' L15 medium supplemented with 10 ng/mL insulin (MDA-MB-435 and MDA-MB-468) with 10% fetal bovine serum supplemented with glutamine and gentamicin. For proliferation assays, trypsinized cells were subjected to three cycles of centrifugation and resuspension in phenol red-free medium supplemented with charcoal stripped medium (5% final), glutamine and Pen/Strep. Cells were plated on day 0, with or without estrogen (10 nM final concentration). On day 1, 4-hydroxytamoxifen and SKI-606 or DMSO were added as a serial dilution. Cells were incubated for 7 days, after which CellTiter Glo (Promega) was added as recommended by the manufacturer. After mixing and two hours incubation on the bench, plates were read on an Envision reader. […] The 10 uM data point was dropped for these two lines since there was a clear plateau prior to the sharp drop in luminescence observed at 10 uM compound. The IC50 was calculated using a floating minima corresponding to the lowest luminescence value at 5 uM.
Cell proliferation assays were performed in two formats; a three day proliferation assay in fully supplemented medium with phenol red, and a 7 day proliferation assay in phenol red free medium supplemented with charcoal-stripped medium. […] ER positive T47D cells were slightly more sensitive to SKI-606 in the presence of estrogen. BT20 cells were equally sensitive to SKI-606 in stripped serum medium, regardless of whether estrogen was present.
Proliferation data for SKI-606 in various breast tumor lines in complete medium (10% FCS) and charcoal stripped serum with no phenol red (no E2, E2) with and without 10 nM estrogen. The complete medium data were obtained in 3-day assays, while stripped serum assays were extended for 7 days with one change of medium at day 5. The IC50 values for the BT20 line was calculated using the “plateau” cell number evident at 5 μM SKI-606.

[1] abbreviates: 10 nM estrogen, read-out: IC50 (uM) E2.
[2] abbreviates: without estrogen, read-out: IC50 (uM) no E2.

In general, IC50 refers to the point on the concentration scale where inhibition reaches its midpoint. As to `COc1cc(Nc2c(C#N)cnc3cc(OCCCN4CCN(C)CC4)c(OC)cc23)c(Cl)cc1Cl` [bosutinib], the IC50 with BT474 (setting [1]) turned out to be 2.32 µM; in the assay with BT474 (setting [2]) it was 2.22 µM; in the assay with MDA-MB-435 (ER neg), 3.4 µM; with T47D (setting [1]) it was 1.28 µM; in the assay on T47D (setting [2]) it was 2.85 µM; in the assay on MDA-MB-361 (MDA-MB-361, 72 h, 3 Day assay, complete medium (10% FCS), read-out: IC50 (uM) 10% FCS), 2.5 µM. Moreover, the IC50 in the assay with MDA-MB-361 (MDA-MB-361, 168 h, 7 Day assay, charcoal stripped serum, no phenol red, 10 nM estrogen, read-out: IC50 (uM) E2) stood at 0.38 µM; in the assay on MDA-MB-361 (MDA-MB-361, 168 h, 7 Day assay, charcoal stripped serum, no phenol red, without estrogen, read-out: IC50 (uM) no E2) it was 0.74 µM. In addition, in the assay with MDA-MB-361 (10 uM SKI-606, MDA-MB-361 cells), the “toxicity at maximal concentration” value is recorded as “some toxicity was seen”. Besides, the “effect on estrogen-dependent and estrogen-independent growth” value with MDA-MB-361 (MDA-MB-361) is “inhibited estrogen-dependent and estrogen-independent growth”.
